Experimental findings from patent US20260241013A1, “TARGETED PROTEIN DEGRADATION USING PRODRUGS OF BIFUNCTIONAL COMPOUNDS THAT BIND UBIQUITIN LIGASE AND A TARGET MCL-1 PROTEIN” (Captor Therapeutics S.A., priority 2022, published 2026) are described below.

Common to all, as to assay type: cell-based
One series relates to MV4-11 cells. Nature of the series: Cell viability assay (CellTiter-Glo, CTG protocol), MV4-11. As to conditions: Homo sapiens, MV4-11 (MCL-1 dependent AML line), 24 hours incubation, 1% FBS, read-out: Average pCC50 by molecule MV4-11 (converted). An excerpt: (§1) The effect of various compounds of the invention on the viability of MV4-11 and ARH-77 cell lines was investigated, using the CTG protocol described below.
(§2) MV4-11 cell lines are derived from acute myeloid leukaemia and it is described in the literature as a MCL-1 dependent cell line, as opposed to lymphoblast-like ARH-77 cell line, which is described as independent of MCL-1 (Tron A E et al. Nat Commun. 2018; 9: 5341; Caenepeel S et al. Cancer Discov. 2018 December; 8(12): 1582-1597).
(§3) Cells (MV4-11 or ARH-77) were seeded on […] in a growth medium with 1% FBS. Next, compound stocks were pre-diluted in DMSO and added directly to the cell culture media (final DMSO concentration: 0.5%). Compound concentrations used in this assay: 1/3 dilutions starting at 30 μM (9 to 12 points). After 24 hours of incubation, cell viability was evaluated using CellTiter-Gob® Luminescent Cell Viability Assay (Promega, cat #G7572). The luminescence signal was measured using a CLARIOstar Plus Multi-Mode Microplate Reader (574-590 nm).
(§4) Results were normalized to DMSO control. Collected data were analyzed using GraphPad Prism to calculate pCC50 values (i.e. the negative log of the CC50 value). CC50 (50% cytotoxic concentration) is the effective concentration of a cytotoxic compound, which produces 50% of the maximum possible cell death (i.e. the concentration of the compound which is required in order to reduce cell viability by 50%). CC50 is often used rather than IC50 in cell toxicity assays.
(In general: In ATP-based viability assays light output follows the ATP content of the culture.)

The nature of series [1]: Cell viability assay (CellTiter-Glo, CTG protocol), ARH-77. Conditions: human, ARH-77 cells (lymphoblast-like), ARH-77 (MCL-1 independent line), 24 hours incubation, 1% FBS, read-out: Average pCC50 by molecule ARH-77 (converted).
Source text: as §1, §2, §3, §4

A further series addresses T1, CRBN (Homo sapiens, UniProt Q96SW2).
T1 construct: host or cells: HEK293 (NanoLuc CRBN HEK293 cells)
The series is described as follows: NanoBRET In-cell CRBN Target Engagement Assay (live and lytic mode), NanoLuc CRBN HEK293 cells. The protocol:
Commercially available, NanoBRET In-cell CRBN Target Engagement Assay (NanoBRET CRBN TE Assay), which uses NanoLuc CRBN HEK293 cells and NanoBRET In-cell CRBN Tracer was used (N2910, N2912, PROMEGA) to determine the cell membrane permeability of prodrugs of MCL-1 degraders.
The assay was run in 96-well plate format (cat. 3600, Corning). NanoLuc CRBN HEK293 cells were treated with CRBN Tracer and compounds. Briefly, prepared was cell suspension (0.17×10^6cells/ml) in Opti-MEM without phenol red (Life Technologies). The cells were treated with CRBN Tracer (20× concentrated, 5 μl/well. For the live mode: 0.8 μM and for the lytic: 0.17 μM final concentration) or DMSO vehicle control (20× concentrated, 5 μl/well). Such prepared cells were seeded into the wells of 96-well plate on top of compounds (100× concentrated, 1 μl/well; 11-point 2-fold dilution) pre-plated on them with the help of Echo 555 acoustic dispenser (Labcyte). For the lytic mode assay, Digitonin (0.05 mg/ml, 10× concentrated, 10 μl/well) was added additionally. In the live mode assay, the plate was incubated at 37° C., 5% CO2 for 2 hours, and then at room temperature for 15 minutes to cool down. In the lytic mode assay, there was no incubation. The 3×Complete NanoBRET reagent (50 μl/well) was prepared according to the manufacturer's recommendations, appropriately for live and lytic mode. The plate was incubated for 2 minutes at room temperature and the luminescence and fluorescence readings followed using CLARIOstar Multimode Plate Reader (donor emission RLU—450 nm; acceptor emission RFU—610 nm). RBA value is an indicator of cell membrane permeability (the lower, the better) is calculated from absolute pIC50 (the negative log of the absolute IC50 value when converted to molar) of the live mode assay (pIC50 Live) and the lytic mode assay (pIC50 Lytic).
In general terms: BRET reads energy transfer from a luciferase to a nearby fluorophore.

Where [2] appears, read: live mode, intact cells, 2 hours at 37° C., read-out: pIC50 (live) (converted).
Setting [3] is: lytic mode, digitonin-lysed cells, no incubation, read-out: pIC50 (lytic) (converted).

Read-outs that look alike come from different tables or passages of the source.

T1 sequence (Q96SW2 whole entry): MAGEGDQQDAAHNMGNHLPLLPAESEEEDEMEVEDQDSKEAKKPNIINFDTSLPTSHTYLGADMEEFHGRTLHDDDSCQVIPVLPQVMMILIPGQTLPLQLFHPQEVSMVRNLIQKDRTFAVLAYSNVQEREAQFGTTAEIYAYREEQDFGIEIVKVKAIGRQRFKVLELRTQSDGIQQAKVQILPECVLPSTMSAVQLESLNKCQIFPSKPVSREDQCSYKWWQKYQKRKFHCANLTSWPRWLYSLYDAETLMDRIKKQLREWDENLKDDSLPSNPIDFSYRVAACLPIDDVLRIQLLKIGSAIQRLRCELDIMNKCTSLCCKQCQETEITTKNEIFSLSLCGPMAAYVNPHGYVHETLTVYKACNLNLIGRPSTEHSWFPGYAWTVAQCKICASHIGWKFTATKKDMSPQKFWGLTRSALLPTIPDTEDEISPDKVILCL

As to `Cc1nn(C)c(C)c1-c1c(Cl)ccc2c(CCCOc3cccc4cc(F)ccc34)c(C(=O)OCOC(=O)CCO)n(CCN3CCN(C(=O)COc4cccc5c4CN(C4CCC(=O)NC4=O)C5=O)CC3)c12` (centres unmarked) [Compound 43], the CC50 in the series with MV4-11 cells is less than 3.16 nM. In series [1], the CC50 at 24 h was more than 3160 nM. The figures for the IC50 at CRBN (setting [2]) and on CRBN (setting [3]) were 39.8 nM and 79.4 nM, respectively.

Consider `Cc1nn(C)c(C)c1-c1c(Cl)ccc2c(CCCOc3cccc4cc(F)ccc34)c(C(=O)OCOC(=O)C3CCNCC3)n(CCN3CCN(C(=O)COc4cccc5c4CN(C4CCC(=O)NC4=O)C5=O)CC3)c12` (centres unmarked) [Compound 55, ((Piperidine-4-carbonyl)oxy)methyl 6-chloro-1-(2-(4-(2-((2-(2,6-dioxopiperidin-3-yl)-1-oxoisoindolin-4-yl)oxy)acetyl)piperazin-1-yl)ethyl)-3-(3-((6-fluoronaphthalen-1-yl)oxy)propyl)-7-(1,3,5-trimethyl-1H-pyrazol-4-yl)-1H-indole-2-carboxylate], for which the CC50 with MV4-11 cells is less than 100 nM. The CC50 at 24 h in series [1] was more than 10000 nM.

For the compound `COCCOCC(=O)OCOC(=O)c1c(CCCOc2cccc3cc(F)ccc23)c2ccc(Cl)c(-c3c(C)nn(C)c3C)c2n1CCN1CCN(C(=O)COc2cccc3c2CN(C2CCC(=O)NC2=O)C3=O)CC1` (centres unmarked) [Compound 57, (2-(2-Methoxyethoxy)acetoxy)methyl 6-chloro-1-(2-(4-(2-((2-(2,6-dioxopiperidin-3-yl)-1-oxoisoindolin-4-yl)oxy)acetyl)piperazin-1-yl)ethyl)-3-(3-((6-fluoronaphthalen-1-yl)oxy)propyl)-7-(1,3,5-trimethyl-1H-pyrazol-4-yl)-1H-indole-2-carboxylate], in the series with MV4-11 cells, the CC50 was less than 10 nM. Further, the CC50 at 24 h in series [1] is more than 10000 nM.

With `Cc1nn(C)c(C)c1-c1c(Cl)ccc2c(CCCOc3cccc4cc(F)ccc34)c(C(=O)OCOC(=O)C(C)(C)C)n(CCN3CCN(C(=O)Cn4c(C)nc5c(C(=O)NC6CCC(=O)NC6=O)cccc54)CC3)c12` (centres unmarked) [Compound 70, (6-Chloro-1-{2-[4-(2-{4-[(2,6-dioxopiperidin-3-yl)carbamoyl]-2-methyl-1H-1,3-benzodiazol-1-yl}acetyl)piperazin-1-yl]ethyl}-3-{3-[(6-fluoronaphthalen-1-yl)oxy]propyl}-7-(1,3,5-trimethyl-1H-pyrazol-4-yl)-1H-indole-2-carbonyloxy)methyl 2,2-dimethylpropanoate], the CC50 in the series on MV4-11 cells is less than 10 nM. Also, in series [1], the CC50 at 24 h was more than 31600 nM. Also, the IC50 is 25.1 nM on CRBN (setting [2]) and 7940 nM on CRBN (setting [3]).

On to `Cc1nn(C)c(C)c1-c1c(Cl)ccc2c(CCCOc3cccc4cc(F)ccc34)c(C(=O)OCOC(=O)C(C)(C)C)n(CCN3CCC(CN4CCN(c5ccc6c(c5)CN([C@H]5CCC(=O)NC5=O)C6=O)CC4)CC3)c12` [Compound 71, (Pivaloyloxy)methyl (S)-6-chloro-1-(2-(4-((4-(2-(2,6-dioxopiperidin-3-yl)-1-oxoisoindolin-5-yl)piperazin-1-yl)methyl)piperidin-1-yl)ethyl)-3-(3-((6-fluoronaphthalen-1-yl)oxy)propyl)-7-(1,3,5-trimethyl-1H-pyrazol-4-yl)-1H-indole-2-carboxylate], for which, in the series on MV4-11 cells, the CC50 is less than 100 nM. Besides, the CC50 at 24 h in series [1] was more than 10000 nM.

`CC(=O)OC(C)OC(=O)c1c(CCCOc2cccc3cc(F)ccc23)c2ccc(Cl)c(-c3c(C)nn(C)c3C)c2n1CCN1CCN(C(=O)COc2cccc3c2CN(C2CCC(=O)NC2=O)C3=O)CC1` (centres unmarked) [Compound 75, 1-Acetoxyethyl 6-chloro-1-(2-(4-(2-((2-(2,6-dioxopiperidin-3-yl)-1-oxoisoindolin-4-yl)oxy)acetyl)piperazin-1-yl)ethyl)-3-(3-((6-fluoronaphthalen-1-yl)oxy)propyl)-7-(1,3,5-trimethyl-1H-pyrazol-4-yl)-1H-indole-2-carboxylate]: in the series with MV4-11 cells, the CC50 was less than 10 nM. The CC50 at 24 h in series [1] is more than 31600 nM.

With `Cc1nn(C)c(C)c1-c1c(Cl)ccc2c(CCCOc3cccc4cc(F)ccc34)c(C(=O)OC(C)OC(=O)OC(C)C)n(CCN3CCN(C(=O)COc4cccc5c4CN(C4CCC(=O)NC4=O)C5=O)CC3)c12` (centres unmarked) [Compound 99, 1-{[(Propan-2-yloxy)carbonyl]oxy}ethyl 6-chloro-1-{2-[4-(2-{[2-(2,6-dioxopiperidin-3-yl)-1-oxo-2,3-dihydro-1H-isoindol-4-yl]oxy}acetyl)piperazin-1-yl]ethyl}-3-{3-[(6-fluoronaphthalen-1-yl)oxy]propyl}-7-(1,3,5-trimethyl-1H-pyrazol-4-yl)-1H-indole-2-carboxylate], in the series on MV4-11 cells, the CC50 was less than 31.6 nM. Also, the CC50 at 24 h in series [1] was more than 31600 nM.

Regarding `Cc1nn(C)c(C)c1-c1c(Cl)ccc2c(CCCOc3cccc4cc(F)ccc34)c(C(=O)OC(C)OC(=O)OC3CCCCC3)n(CCN3CCN(C(=O)COc4cccc5c4CN(C4CCC(=O)NC4=O)C5=O)CC3)c12` (centres unmarked) [Compound 100, 1-(((Cyclohexyloxy)carbonyl)oxy)ethyl 6-chloro-1-(2-(4-(2-((2-(2,6-dioxopiperidin-3-yl)-1-oxoisoindolin-4-yl)oxy)acetyl)piperazin-1-yl)ethyl)-3-(3-((6-fluoronaphthalen-1-yl)oxy)propyl)-7-(1,3,5-trimethyl-1H-pyrazol-4-yl)-1H-indole-2-carboxylate], the CC50 in the series with MV4-11 cells was less than 31.6 nM. In addition, in series [1], the CC50 at 24 h is more than 31600 nM.

Consider `Cc1nn(C)c(C)c1-c1c(Cl)ccc2c(CCCOc3cccc4cc(F)ccc34)c(C(=O)OCCS(C)(=O)=O)n(CCN3CCN(C(=O)COc4cccc5c4CN(C4CCC(=O)NC4=O)C5=O)CC3)c12` (centres unmarked) [Compound 124, 2-(Methylsulfonyl)ethyl 6-chloro-1-(2-(4-(2-((2-(2,6-dioxopiperidin-3-yl)-1-oxoisoindolin-4-yl)oxy)acetyl)piperazin-1-yl)ethyl)-3-(3-((6-fluoronaphthalen-1-yl)oxy)propyl)-7-(1,3,5-trimethyl-1H-pyrazol-4-yl)-1H-indole-2-carboxylate], for which, in the series on MV4-11 cells, the CC50 is less than 1000 nM. The CC50 at 24 h in series [1] is more than 31600 nM.

For the compound `Cc1nn(C)c(C)c1-c1c(Cl)ccc2c(CCCOc3cccc4cc(F)ccc34)c(C(=O)OCCN3CCOCC3)n(CCN3CCN(C(=O)COc4cccc5c4CN(C4CCC(=O)NC4=O)C5=O)CC3)c12` (centres unmarked) [Compound 129, 2-Morpholinoethyl 6-chloro-1-(2-(4-(2-((2-(2,6-dioxopiperidin-3-yl)-1-oxoisoindolin-4-yl)oxy)acetyl)piperazin-1-yl)ethyl)-3-(3-((6-fluoronaphthalen-1-yl)oxy)propyl)-7-(1,3,5-trimethyl-1H-pyrazol-4-yl)-1H-indole-2-carboxylate], the IC50 at CRBN (setting [2]) was 316 nM; on CRBN (setting [3]), 355 nM.

For the compound `Cc1nn(C)c(C)c1-c1c(Cl)ccc2c(CCCOc3cccc4cc(F)ccc34)c(C(=O)OCCN3CCN(C)CC3)n(CCN3CCN(C(=O)COc4cccc5c4CN(C4CCC(=O)NC4=O)C5=O)CC3)c12` (centres unmarked) [Compound 133, 2-(4-Methylpiperazin-1-yl)ethyl 6-chloro-1-(2-(4-(2-((2-(2,6-dioxopiperidin-3-yl)-1-oxoisoindolin-4-yl)oxy)acetyl)piperazin-1-yl)ethyl)-3-(3-((6-fluoronaphthalen-1-yl)oxy)propyl)-7-(1,3,5-trimethyl-1H-pyrazol-4-yl)-1H-indole-2-carboxylate], the values for the IC50 at CRBN (setting [2]) and on CRBN (setting [3]) were 398 nM and 251 nM, respectively.
